Measured values taken from patent publication US5616575A (priority 1995, dated 1997).
Entries after “also recorded” stand apart in the source; their conditions may differ.

Tests used:
[1] = dogs and rabbits; cited from earlier work
[2] = cats; cited from earlier work
[3] = humans; cited from earlier work
[4] = other animals; cited from earlier work
[5] = system: dopamine levels in the nucleus accumbens and striatum; details: nucleus accumbens and striatum (ibogaine: striatum); cited from earlier work
NMDA receptor = NMDA receptor binding in human caudate (FIG. 3A); details: comparison in words
Method: The affinity of compounds 7a-c for the NMDA receptor was measured in human brain tissue employing the methodology of P. Popik et al., Psychopharmacol., 114, 672 (1994).

kappa-1 receptor [6] = assay: Preliminary screening, binding at the kappa-1 receptor; details: in words
Method: To assess the potential addiction-interrupting effects of the newly synthesized iboganoids, compounds 7a,b,c were tested for binding at the 5-HT transporter and the […] and kappa-2 opiate receptors, molecular targets known to modulate mesolimbic dopaminergic function.

5-HT transporter = target: T1, 5-HT transporter (Homo sapiens, UniProt P31645); assay: Full competition experiments at the 5-HT transporter in human occipital cortex ([125I]RTI55); assay type: binding; details: for relative potency at the 5-HT transporter: comparison with ibogaine or noribogaine, in words; for IC50 / nH: human occipital cortex, mean ± S.D.; for IC50: 0.01 nM [125I]RTI55, 1 μM benztropine, 25° C., two determinations in triplicate; for nH: 0.01 nM [125I]RTI55
T1 construct: from tissue; host or cells: human occipital cortex membranes
Method: ^a Membranes isolated from human occipital cortex were incubated for
hr at 25° C., in the presence of 1 μM benztropine, with 0.01 nM
[^125 I]RTI55 and varying concentrations of the respective compounds.
Data analysis was performed with EBDA (DRUG). The data presented are the
mean ± S.D. of two independent determinations conducted in triplicate,
nonspecific binding was evaluated using 50 μm-cocaine. (See, J.K.
Staley et al., J. Neurochem., 62, 549 (1994)).

kappa-1 receptor [7] = target: T2, kappa-1 receptor (Homo sapiens, UniProt P41145); assay: Competition binding at the kappa-1 receptor of human insular cortex ([3H]U693593); details: for IC50: IC50, human insular cortex; for IC50 / nH: mean ± S.D.; for relative potency at the kappa-1 receptor: comparison with ibogaine, in words; for nH: human insular cortex
T2 construct: from tissue; host or cells: human insular cortex membranes
Method: Data analysis was performed with EBDA (DRUG); NS = nonspecific
The data presented are the mean ± S.D. of two independent

[8] = In vivo evaluation, behavior of rats after injection; details: for locomotor activity and ataxia / behavioral symptoms: injection, 7a and 7c 100 μmol/kg, 7d 150 μmol/kg; for locomotor activity and ataxia / behavioral symptoms / tremors: 7b comparable dose; for tremorigenic effect relative to ibogaine: comparison in words with ibogaine at 40 mg/kg; for tremors: 7a 100 μmol/kg
Method: Onset of symptoms was evident within 2 minutes, and the effects were most severe by 5 min. Signs of recovery became evident by 40 min post-injection and the animals appeared fully recovered after 60 min. Mild tremors were observed between 3 and 8 min post-injection.

[9] = mice; cited from earlier work
[10] = fighting mice; cited from earlier work
[11] = rodents; cited from earlier work
[12] = humans; cited from earlier work; remark: listed apart in the source
[13] = rats, 100 μmol/kg, post-injection

Compound: CC[C@H]1C[C@H]2C[C@H]3c4[nH]c5ccc(OC)cc5c4CCN(C2)[C@@H]13 [Ibogaine, ibogaine]
- excitatory effects and local anesthetic activity [1]: unusual excitatory effects and local anesthetic activity
- psychostimulant effects [2]: psychostimulant which caused phobia, ataxia and tremors in cats
- craving / drug-free status [3]: some addicts reported alleviation or cessation of craving, and a few remained drug-free for several years thereafter; also recorded: effective in reducing craving in some humans while others were unaffected
- number of doses required for comparable effects [4]: up to three doses
- dopamine levels [5]: reduce dopamine levels in the striatum

Compound: CCN1CCc2c(sc3ccccc23)C(c2cccc(Br)c2)C1 (stereo not shown) [Compound 7c, 3-Ethyl-5-(3-bromophenyl)-1,2,3,4,5-pentahydroazepino[4,5-b]benzothiophene]
- relative potency at the NMDA site (NMDA receptor): equipotent with ibogaine; also recorded: about fivefold more potent than 7a,b and noribogaine
- activity/affinity at the kappa-1 receptor (kappa-1 receptor [6]): some activity
- relative potency at the 5-HT transporter (5-HT transporter): essentially equipotent with the naturally occurring compound
- IC50 (5-HT transporter): 0.82 ± 0.16 µM
- nH (5-HT transporter): 1.2 ± 0.2
- IC50 (kappa-1 receptor [7]; NS = 10 μM Naloxone): 117 ± 14.5 µM
- IC50 (kappa-1 receptor [7]; NS, Computer-derived): 49 ± 0.96 µM
- relative potency at the kappa-1 receptor (kappa-1 receptor [7]): significantly less potent
- nH (kappa-1 receptor [7]; NS = 10 μM Naloxone): 0.6 ± 0.1
- nH (kappa-1 receptor [7]; NS, Computer-derived): 0.9 ± 0.1
- locomotor activity and ataxia / behavioral symptoms ([8]; rats): No effects were observed

Compound: c1ccc(C2CNCCc3c2[nH]c2ccccc32)cc1 (stereo not shown) [5-phenyl-1,2,3,4,5,6-hexahydroazepino[4,5-b]indole]
- antidepressant activity [9]: displayed antidepressant activity

Compound: CC[C@H]1C[C@@H]2CN3CCc4c([nH]c5ccccc45)[C@](C(=O)OC)(C2)[C@H]13 [R-coronaridine]
- dopamine levels [5]: reduced dopamine levels in the nucleus accumbens and striatum

Compound: CN1CCc2c([nH]c3ccccc23)C(c2ccccc2)C1 (stereo not shown) [3-methyl-5-phenyl-1,2,3,4,5,6-hexahydroazepino[4,5-b]indole]
- antidepressant activity [9]: displayed antidepressant activity

Compound: CCN1CCc2c(sc3ccccc23)C(c2cccc([N+](=O)[O-])c2)C1 (stereo not shown) [Compound 7b, 3-Ethyl-5-(3-nitrophenyl)-1,2,3,4,5-pentahydroazepino[4,5-b]benzothiophene]
- activity/affinity at the kappa-1 receptor (kappa-1 receptor [6]): poor affinity
- relative potency at the 5-HT transporter (5-HT transporter): two- to threefold more potent than ibogaine
- IC50 (5-HT transporter): 0.26 ± 0.06 µM
- nH (5-HT transporter): 1.0 ± 0.2
- tremorigenic effect relative to ibogaine [8]: much less tremorigenic than ibogaine
- tremors ([8]; rats): no tremors were observed

Compound: Cn1c2c(c3ccccc31)CCNCC2 [6-methyl-1,2,3,4,5,6-hexahydroazepino[4,5-b]indole]
- aggressive behavior [10]: antagonize aggressive behavior in fighting mice
- conditioned avoidance [11]: block conditioned avoidance
- hypothermia and anorexigenic behavior [11]: induce hypothermia and anorexigenic behavior in rodents
- neuroleptic activity [12]: did not exhibit neuroleptic activity in humans

Compound: CCC1CC2CC3c4[nH]c5ccc(O)cc5c4CCN(C2)C13 (stereo not shown) [Noribogaine, 12-hydroxyibogamine, reference compound]
- nH (5-HT transporter): 0.78 ± 0.06
- IC50 (kappa-1 receptor [7]; 0.3 nM [3H]U693593, 1 hr, 25° C., NS definition not stated in line): 4.24 ± 0.28 µM
- nH (kappa-1 receptor [7]; NS definition not stated in line): 1.1 ± 0.1

Compound: COC(=O)[C@H]1[C@@H](OC(=O)c2ccccc2)C[C@@H]2CC[C@H]1N2C [cocaine, reference compound]
- reversal of the reduction in locomotor activity induced by 7b ([8]; rats, cocaine 10 mg/kg ip, injected 10 min after 7b): reversed the reduction in locomotor activity induced by 7b

Compound: R-ibogamine [R-ibogaine]
- dopamine levels [5]: reduced dopamine levels in the nucleus accumbens and striatum

Compound: CCN1CCc2c(sc3ccccc23)C(c2ccccc2)C1 (stereo not shown) [Compound 7a, 3-Ethyl-5-phenyl-1,2,3,4,5-pentahydroazepino[4,5-b]benzothiophene]
- activity/affinity at the kappa-1 receptor (kappa-1 receptor [6]): some activity
- relative potency at the 5-HT transporter (5-HT transporter): two- to threefold more potent than ibogaine
- IC50 (5-HT transporter): 0.21 ± 0.01 µM
- nH (5-HT transporter): 1.0 ± 0.1
- IC50 (kappa-1 receptor [7]; NS = 10 μM Naloxone): 17.2 ± 3.18 µM
- IC50 (kappa-1 receptor [7]; NS, Computer-derived): 10.1 ± 2.01 µM
- relative potency at the kappa-1 receptor (kappa-1 receptor [7]): essentially equipotent with ibogaine
- nH (kappa-1 receptor [7]; NS = 10 μM Naloxone): 0.5 ± 0.0
- nH (kappa-1 receptor [7]; NS, Computer-derived): 1.3 ± 0.1
- tremorigenic effect relative to ibogaine [8]: much less tremorigenic than ibogaine
- breathing ([8]; rats, 100 μmol/kg): Breathing appeared labored
- onset of symptoms ([8]; rats, 100 μmol/kg): ≤ 2 min
- tail posture ([8]; rats, 100 μmol/kg): the tail remained outstretched and limp
- time at which effects were most severe ([8]; rats, 100 μmol/kg): ≤ 5 min
- time at which signs of recovery became evident [8, 13]: ≤ 40 min
- time to full recovery [8, 13]: 60 min
- tremors ([8]; rats): Mild tremors
- locomotor activity and ataxia / behavioral symptoms ([8]; rats): severe reduction in locomotor activity and ataxia
